According to patent US10689383B2, “Optionally fused heterocyclyl-substituted derivatives of pyrimidine useful for the treatment of inflammatory, metabolic, oncologic and autoimmune diseases” (NUEVOLUTION A/S, priority 2014, dated 2020):

Assays:
[1] = biological target: T1, human RORγt (Ligand Binding Domain) (Homo sapiens, UniProt P51449); assay: Fluorescence Polarization (FP) Assay; settings: Fluorescence Polarization (FP) Assay; values given as upper bounds of activity ranges; read-out: FP activity range
T1 construct: purchased Crelux (Planegg, Germany) batch no PC5032-1
T1 sequence (P51449 269-508 limits assumed): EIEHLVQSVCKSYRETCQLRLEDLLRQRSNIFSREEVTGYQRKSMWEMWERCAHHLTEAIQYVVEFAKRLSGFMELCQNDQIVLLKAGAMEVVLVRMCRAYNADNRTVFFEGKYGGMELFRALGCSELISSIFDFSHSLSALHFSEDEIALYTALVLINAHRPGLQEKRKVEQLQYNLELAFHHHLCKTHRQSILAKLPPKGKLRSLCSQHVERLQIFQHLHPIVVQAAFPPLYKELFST
Procedure, shortened: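 Binding to the ligand pocket followed by fluorescence polarization with a TAMRA-tagged RORγt ligand probe of 910 g/mole. Negative control wells received DMSO only.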

[2] = biological target: T2, yeast Gal4-DNA binding domain fused to the ligand binding domain of human RORγ (Homo sapiens, UniProt P51449); assay: RORγ Reporter Assay (Gal4); type: cell-based; settings: values given as lower bounds of ranges; for Gal4 activity range @ 1 μM (% inhibition): RORγ Reporter Assay (Gal4) at 1 μM; for Gal4 activity range @ 0.1 μM (% inhibition): RORγ Reporter Assay (Gal4) at 0.1 μM
T2 construct: host or cells: HEK293t
T2 sequence (P51449 269-508 limits assumed): T1 sequence (P51449 269-508 limits assumed)
Procedure, shortened: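 Compound at final 1,000 or 100 nM (0.1% DMSO, triplicate) was added to the transfected HEK293t cells carrying a Gal4-UAS luciferase reporter for 24 h at 37 °C, 10% charcoal-stripped FBS. Activity reduction expressed as percent of vehicle-only luciferase signal.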

Th17 cells = assay: Th17 Assay (IL-17 levels in supernatants by ELISA); type: cell-based; settings: Homo sapiens; read-out: Th17 activity range @ 1 μM (% inhibition)
Description: The activity of the compounds was evaluated using a Fluorescence Polarization (FP) Assay and, in most cases, a Th17 Assay and/or RORγ Reporter assay (also referred to as Gal4 assay). The FP assay is an in vitro assay monitoring binding within the ligand binding pocket. The RORγ and the Th17 assays are both cell-based assays monitoring functional activity of the compound assayed.
Human peripheral blood mononuclear cells (PBMCs) were isolated from buffy coats of healthy human volunteers using the Ficoll paque PLUS kit (GE Healthcare, cat no 17-1440-02), as instructed by the manufacturer. Naive CD4+ T cells were isolated with Naive CD4+ T cell kit, human (Milteny Biotec, cat no 130-094-131). The following modifications were made to the manufacturer's protocol: 1) Incubation with Biotin-Antibody Cocktail and Anti-Biotin MicroBeads was prolonged to 30 minutes, and 2) Cells were washed with 40 mL of Miltenyi buffer. Differentiation of Th17 cells in anti-CD3 (BD Pharmingen, 5 μg/ml) coated 96-well plates (400,000 cells/well, 160 μl RPMI 1640+10% Fetal Bovine Serum) containing 5 μg/ml anti-CD28 (BD Pharmingen), 10 ng/ml IL-2 (R&D Systems), 2.5 ng/ml TGFβ-1 (R&D Systems), 20 ng/ml IL-1β (R&D Systems), 20 ng/ml IL-6 (R&D Systems), 30 ng/ml IL-23 (R&D Systems), 2.5 μg/ml anti-IL-4 (R&D Systems) and 1 μg/ml anti-IFNγ (R&D Systems) and with test compound during the entire differentiation (or vehicle, 0.1% DMSO for control). Test compounds were tested in triplicates, diluted 1000-fold in medium (final DMSO concentration is 0.1%). Incubated for seven days at 37° C., 5% CO2, 95% humidity, and 2-fluoro-4′-[[4-(4-pyridinylmethyl)-1-piperazinyl]methyl]-α,α-bis(trifluoromethyl)-[1,1′-biphenyl]-4-methanol (SR2211 Calbiochem, Cat. No. 557353) was used as positive control. As negative control, cells were differentiated into Th0 using 5 μg/ml anti-CD28 (BD Pharmingen), 10 ng/ml IL-2 (R&D Systems), 2 μg/ml anti-IL4 (R&D Systems) and 2 μg/ml anti-IFNγ (R&D Systems) are negative control. IL-17 levels in supernatants were measured with ELISA (R&D Systems).

female C57BL/6 mice = assay: Experimental Autoimmune Encephalomyelitis (EAE) Study; type: in vivo; settings: 10 and 30 mg/kg, orally twice daily, 25 days
male DBA/1J mice = assay: Collagen-Induced Arthritis (CIA) Study; type: in vivo; settings: orally twice daily
Description: Collagen-induced arthritis is an animal model of rheumatoid arthritis used to evaluate the efficacy of test compounds. CIA was induced at Washington Biotechnology Inc. (Baltimore) in male DBA/1J mice (Jackson Laboratories) by subcutaneous injection at the base of the tail with 50 μl of a bovine collagen/complete Freund's adjuvant emulsion. After 21 days, the mice were further boosted by a further subcutaneous injection of 50 μl of a collagen/incomplete Freund's adjuvant emulsion. For treatment, compound or vehicle (2% DMSO, 10% HP-β-CD in MilliQ water) was given orally twice daily at various doses selected from 3, 10, 30 mg/kg, beginning at the day of CIA induction (Prophylactic setting), or after disease initiation (at day 27, therapeutic setting). Treatment lasted until day 41, and the animals were scored three times weekly. Each paw was scored and the sum of all four scores was recorded as the Arthritic Index (AI). The maximum possible AI was 16.0=no visible effects of arthritis; 1=edema and/or erythema of one digit; 2=edema and/or erythema of 2 joints; 3=edema and/or erythema of more than 2 joints; 4=severe arthritis of the entire paw and digits including limb deformation and ankylosis of the joint. The Arthritis Index for each treatment can be expressed as the mean score for each treatment group+/−S.E.M.

| IC50 [1] | Gal4 activity range @ 1 μM (% inhibition) [2] | Gal4 activity range @ 0.1 μM (% inhibition) [2] | Structure (SMILES) | inhibition at 1 µM (Th17 cells) | EAE clinical score (female C57BL/6 mice) | onset of EAE (female C57BL/6 mice) | CIA disease development, therapeutic setting (male DBA/1J mice; 30 mg/kg, from day 27) | CIA disease severity, prophylactic setting (male DBA/1J mice; 10 and 30 mg/kg, from day of CIA induction) |
| --- | --- | --- | --- | --- | --- | --- | --- | --- |
| < 2000 nM | >80 % inhibition | – | COc1ccc(Cn2ccc3c(N4CCCC4c4ccc(C(F)(F)F)cc4)ccnc32)cc1OC (stereo not drawn) [Example 67, 1-[(3,4-dimethoxyphenyl)methyl]-4-[2-[4-(trifluoromethyl)phenyl]pyrrolidin-1-yl]pyrrolo[2,3-b]pyridine] | > 80% | – | – | – | – |
| < 500 nM | >80 % inhibition | – | O=C(O)Cc1ccc(CNc2ncnc(N3CCC[C@@H]3c3ccc(C(F)(F)F)cc3)c2F)cc1 [Example 81, 2-[4-[[[5-fluoro-6-[(2R)-2-[4-(trifluoromethyl)phenyl]pyrrolidin-1-yl]pyrimidin-4-yl]amino]methyl]phenyl]acetic acid] | > 80% | – | – | – | – |
| < 500 nM | >80 % inhibition | – | O=C(O)Cc1ccc(Cn2ccc3c(N4CCCC4c4ccc(C(F)(F)F)cc4)ncnc32)cc1 (stereo not drawn) [Example 85, 2-[4-[[4-[2-[4-(trifluoromethyl)phenyl]pyrrolidin-1-yl]pyrrolo[2,3-d]pyrimidin-7-yl]methyl]phenyl]acetic acid] | > 80% | – | – | – | – |
| < 500 nM | >80 % inhibition | >20 % inhibition | Cc1ccc(CNc2ncnc(N3CCCC3c3ccc(C(F)(F)F)cc3)c2F)cn1 (stereo not drawn) [Example 89, 5-fluoro-N-[(6-methyl-3-pyridyl)methyl]-6-[2-[4-(trifluoromethyl)phenyl]pyrrolidin-1-yl]pyrimidin-4-amine] | > 20% | – | – | – | – |
| < 500 nM | >80 % inhibition | >80 % inhibition | Fc1c(NCc2ccc(Cn3ccnc3)cc2)ncnc1N1CCCC1c1ccc(C(F)(F)F)cc1 (stereo not drawn) [Example 94, 5-fluoro-N-[[4-(imidazol-1-ylmethyl)phenyl]methyl]-6-[2-[4-(trifluoromethyl)phenyl]pyrrolidin-1-yl]pyrimidin-4-amine] | > 80% | – | – | – | – |
| < 500 nM | >80 % inhibition | >50 % inhibition | NC(=O)Cc1ccc(CNc2ncnc(N3CCOC[C@@H]3c3ccc(C(F)(F)F)cc3)c2F)cc1 [Example 204, 2-[4-[[[5-fluoro-6-[(3S)-3-[4-(trifluoromethyl)phenyl]morpholin-4-yl]pyrimidin-4-yl]amino]methyl]phenyl]acetamide] | – | lower clinical score | delay onset | arrest disease development | significantly reduce disease severity |

The remaining lines, values behind:

| Structure (SMILES) | IC50 [1] | Gal4 activity range @ 1 μM (% inhibition) [2] | Gal4 activity range @ 0.1 μM (% inhibition) [2] | inhibition at 1 µM (Th17 cells) | EAE clinical score (female C57BL/6 mice) | onset of EAE (female C57BL/6 mice) | CIA disease development, therapeutic setting (male DBA/1J mice; 30 mg/kg, from day 27) | CIA disease severity, prophylactic setting (male DBA/1J mice; 10 and 30 mg/kg, from day of CIA induction) |
| --- | --- | --- | --- | --- | --- | --- | --- | --- |
| CC(C)(C)C[C@@H](Nc1ncnc(N2CCC[C@@H]2c2ccc(C(F)(F)F)cc2)c1F)C(N)=O (single isomer, unassigned) [Example 62, (2R)-2-[[5-fluoro-6-[(2R)-2-[4-(trifluoromethyl)phenyl]pyrrolidin-1-yl]pyrimidin-4-yl]amino]-4,4-dimethyl-pentanamide or (2R)-2-[[5-fluoro-6-[(2S)-2-[4-(trifluoromethyl)phenyl]pyrrolidin-1-yl]pyrimidin-4-yl]amino]-4,4-dimethyl-pentanamide] | < 500 nM | >80 % inhibition | – | > 80% | – | – | – | – |
| CC(C)(C)C[C@H](CO)Nc1ncnc(N2CCCC2c2ccc(C(F)(F)F)cc2)c1F (stereo partly drawn) [Example 30, (2R)-2-[[5-fluoro-6-[2-[4-(trifluoromethyl)phenyl]pyrrolidin-1-yl]pyrimidin-4-yl]amino]-4,4-dimethyl-pentan-1-ol] | < 500 nM | >80 % inhibition | – | > 50% | – | – | – | – |
| O=C(O)Cc1ccc(COc2ncnc(N3CCCC3c3ccc(C(F)(F)F)cc3)c2F)cc1 (stereo not drawn) [Example 79, 2-[4-[[5-fluoro-6-[2-[4-(trifluoromethyl)phenyl]pyrrolidin-1-yl]pyrimidin-4-yl]oxymethyl]phenyl]acetic acid] | < 500 nM | >50 % inhibition | – | > 50% | – | – | – | – |
| N#Cc1ccc(CNc2ncnc(N3CCCC3c3ccc(C(F)(F)F)cc3)c2F)cc1 (stereo not drawn) [Example 88, 4-[[[5-fluoro-6-[2-[4-(trifluoromethyl)phenyl]pyrrolidin-1-yl]pyrimidin-4-yl]amino]methyl]benzonitrile] | < 500 nM | – | – | > 80% | – | – | – | – |
| O=C(O)Cc1ccc(CNc2ncnc(N3CCOCC3c3ccc(OC(F)(F)F)cc3)c2F)cc1 (stereo not drawn) [Example 91, 2-[4-[[[5-fluoro-6-[3-[4-(trifluoromethoxy)phenyl]morpholin-4-yl]pyrimidin-4-yl]amino]methyl]phenyl]acetic acid] | < 500 nM | >80 % inhibition | >20 % inhibition | > 80% | – | – | – | – |
